IC50 data for 23 compounds are collected here from patent US11325899B2, “Benzofurane and benzothiophene derivatives as PGE2 receptor modulators” (IDORSIA PHARMACEUTICALS LTD, priority 2017, dated 2022).

In this experiment the target is T1, EP2 receptor (Homo sapiens, UniProt P43116).
T1 construct: SF295 glioblastoma cells express high endogenous EP2 and no EP4; host or cells: SF295 glioblastoma cells
Put plainly: hEP2 cAMP assay (SF295 glioblastoma cells, HTRF cAMP, PGE2 stimulation). In kind it is cell-based. To be noted: antagonistic activity. Here is the method:
The antagonistic activities of the compounds of formula (I) on the EP2 and EP4 receptors are also determined in accordance with the following experimental method.
Human tumor cell lines expressing endogenously either EP4 or EP2 are used and cAMP accumulation in cells upon PGE2 stimulation is monitored. SF295 glioblastoma cells express high endogenous EP2 and no EP4, whereas BT549 breast cancer cells, express high endogenous EP4 levels and very low EP2 levels.
As a detection method for cAMP the HTRF (homogeneous time resolved fluorescence) Cisbio kit (HTRF cAMP dynamic 2 kit 20′000 tests Cisbio Cat. #62AM4PEC) was used, which is based on a competitive immunoassay using a Cryptate-labeled anti-cAMP antibody and d2-labeled cAMP. Native cAMP produced by cells or unlabeled cAMP (for the standard curve) compete with exogenously added d2-labeled cAMP (acceptor) for binding to monoclonal anti-cAMP-Eu3+ Cryptate (donor). A FRET signal (Fluorescence Resonance Energy Transfer) is obtained only if the labeled anti-cAMP antibody binds the d2 labelled cAMP, thus the specific signal (i.e. energy transfer) is inversely proportional to the concentration of cAMP in the standard or sample.
The SF295 cells (NCI/No. 0503170) are detached from culture dishes with a cell dissociation buffer (Invitrogen, 13151-014), and collected in growing medium (GM: RPM1640 (Invitrogen 21875)/10% FCS, 1% Penicilin/streptomycin). Cells are counted washed and resuspended in assay buffer (AB; HBSS, 20 mM HEPES, 0.2% BSA; 2 mM IBMX). 4′000 cells in 5 μl of AB are seeded per well of a small volume 384 well plate (black with flat bottom, Greiner 784076).
Stock solutions of test compounds are made at a concentration of 10 mM in DMSO, and serially diluted in DMSO to concentrations required for inhibition dose response curves (tested concentration range 30 μM-0.4 nM; 30 μM-0.015 nM or 1 μM-0.01 nM).
PGE2 (Cayman 14010, stock solution: 75 μM in DMSO) is used as agonist at 75 nM final concentration, corresponding to EC80.
Two point five microliters of diluted compounds are transferred into the assay plate. Plate is pre-incubated 45 minutes at room temperature. Subsequently, 2.5 microliters of PGE2 (final conc. 75 nM) are transferred into the assay plate. Plate is incubated 30 minutes at room temperature. Five μl of each donor (anti-cAMP cryptate) and acceptor (cAMP-d2) are added and the plate is incubated another hour at room temperature in the dark and then read using a BMG LABTECH PHERAstar reader (Excitation: 337 nm, Emission: 620 and 665 nm).
The obtained Delta F (fluorescence) values (665 nm/620 nM) are converted into % cAMP values using the measurements of the cAMP calibrator provided in the kit. For each compound concentration the percentage of cAMP compared to DMSO control value as average±STDEV (each concentration is measured in duplicate) is calculated.
IC50 values and curves are generated with XLfit software (IDBS) using Dose-Response One Site model 203. When compounds were measured multiple times, mean values are given.

T1 sequence (P43116 whole entry): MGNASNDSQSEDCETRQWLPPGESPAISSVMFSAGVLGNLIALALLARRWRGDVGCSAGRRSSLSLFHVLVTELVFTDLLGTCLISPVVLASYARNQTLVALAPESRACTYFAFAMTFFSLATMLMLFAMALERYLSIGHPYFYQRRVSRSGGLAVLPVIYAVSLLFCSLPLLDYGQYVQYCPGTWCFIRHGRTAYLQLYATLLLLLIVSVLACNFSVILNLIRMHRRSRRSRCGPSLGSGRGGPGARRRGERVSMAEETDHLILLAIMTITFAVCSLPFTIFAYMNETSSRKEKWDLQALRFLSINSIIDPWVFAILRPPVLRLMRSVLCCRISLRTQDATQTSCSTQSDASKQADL

Broadly, the IC50 is the midpoint of a concentration-inhibition curve. As to `CCOc1cc(-c2cc(NCCc3c(C)sc4c(C)cccc34)ncn2)ccc1C(C)C(=O)O` (racemic) [Example 126, rac-2-(4-{6-[2-(2,7-Dimethyl-benzo[b]thiophen-3-yl)-ethylamino]-pyrimidin-4-yl}-2-ethoxy-phenyl)-propionic acid], the IC50 stood at 233 nM. To `COc1ccc(Cl)c2c(CCNc3cc(-c4cc(C)c(C(=O)O)s4)ncn3)c(C)sc12` [Example 5, 5-{6-[2-(4-Chloro-7-methoxy-2-methyl-benzo[b]thiophen-3-yl)-ethylamino]-pyrimidin-4-yl}-3-methyl-thiophene-2-carboxylic acid] belongs 177 nM; to `Cc1cc(-c2cc(NCCc3c(C)oc4ccccc34)ncn2)sc1C(=O)O` [Example 6, 3-Methyl-5-{6-[2-(2-methyl-benzofuran-3-yl)-ethylamino]-pyrimidin-4-yl}-thiophene-2-carboxylic acid], 4 nM; to `CCc1oc2c(C)cc(F)cc2c1CCNc1cc(-c2cc(C)c(C(=O)O)s2)ncn1` [Example 7, 5-{6-[2-(2-Ethyl-5-fluoro-7-methyl-benzofuran-3-yl)-ethylamino]-pyrimidin-4-yl}-3-methyl-thiophene-2-carboxylic acid], 198 nM. Regarding `Cc1sc2c(C)cccc2c1CCNc1cc(-c2ccc(C(=O)O)cc2)ncn1` [Example 8, 4-{6-[2-(2,7-Dimethyl-benzo[b]thiophen-3-yl)-ethylamino]-pyrimidin-4-yl}-benzoic acid], the IC50 amounted to 8 nM. The compound `COc1ccc(Cl)c2c(CCNc3cc(-c4ccc(C(=O)O)c(O)c4)ncn3)c(C)sc12` [Example 9, 4-{6-[2-(4-Chloro-7-methoxy-2-methyl-benzo[b]thiophen-3-yl)-ethylamino]-pyrimidin-4-yl}-2-hydroxy-benzoic acid] gave an IC50 of 44 nM. The same measure for `Cc1sc2c(C)cc(F)cc2c1CCNc1cc(-c2ccc(C(=O)O)c(O)c2)ncn1` [Example 10, 4-{6-[2-(5-Fluoro-2,7-dimethyl-benzo[b]thiophen-3-yl)-ethylamino]-pyrimidin-4-yl}-2-hydroxy-benzoic acid]: 32 nM; for `CSc1cc(-c2cc(NCCc3c(C#N)sc4c(C)cc(F)cc34)ncn2)ccc1C(=O)O` [Example 12, 4-{6-[2-(2-Cyano-5-fluoro-7-methyl-benzo[b]thiophen-3-yl)-ethylamino]-pyrimidin-4-yl}-2-methylsulfanyl-benzoic acid]: 4 nM. For the compound `COc1cccc2c(CCNc3cc(-c4ccc(C(=O)O)c(SC)c4)ncn3)c(C#N)sc12` [Example 13, 4-{6-[2-(2-Cyano-7-methoxy-benzo[b]thiophen-3-yl)-ethylamino]-pyrimidin-4-yl}-2-methylsulfanyl-benzoic acid], it took 32 nM to reach half-maximal inhibition (IC50). Turning to `CCOc1cc(-c2cc(NCCc3c(C)sc4c(C)cc(F)cc34)ncn2)sc1/C=C/C(=O)O` [Example 96, (E)-3-(3-Ethoxy-5-{6-[2-(5-fluoro-2,7-dimethyl-benzo[b]thiophen-3-yl)-ethylamino]-pyrimidin-4-yl}-thiophen-2-yl)-acrylic acid], the IC50 amounted to 121 nM. Compound `CCOc1cc(-c2cc(NCCc3c(C)sc4c(C)cc(F)cc34)ncn2)sc1CCC(=O)O` [Example 97, 3-(3-Ethoxy-5-{6-[2-(5-fluoro-2,7-dimethyl-benzo[b]thiophen-3-yl)-ethylamino]-pyrimidin-4-yl}-thiophen-2-yl)-propionic acid] showed an IC50 of 120 nM.

In turn, `COc1ccc(Cl)c2c(CCNc3cc(-c4ccc(C(=O)O)c(OC(C)C)c4)ncn3)c(C)sc12` [Example 98, 4-{6-[2-(4-Chloro-7-methoxy-2-methyl-benzo[b]thiophen-3-yl)-ethylamino]-pyrimidin-4-yl}-2-isopropoxy-benzoic acid] displayed an IC50 of 53 nM.

Consider `CCCOc1cc(-c2cc(NCCc3c(C)sc4c(C)c(F)ccc34)ncn2)ccc1C(=O)O` [Example 99, 4-{6-[2-(6-Fluoro-2,7-dimethyl-benzo[b]thiophen-3-yl)-ethylamino]-pyrimidin-4-yl}-2-propoxy-benzoic acid], for which inhibition was half-maximal at 30 nM (IC50). The same measure for `CCCOc1cc(-c2cc(NCCc3c(C)sc4c(C)cc(F)cc34)ncn2)ccc1C(=O)O` [Example 100, 4-{6-[2-(5-Fluoro-2,7-dimethyl-benzo[b]thiophen-3-yl)-ethylamino]-pyrimidin-4-yl}-2-propoxy-benzoic acid]: 20 nM. For the compound `CCCOc1cc(-c2cc(NCCc3c(C)sc4c(OC)ccc(Cl)c34)ncn2)ccc1C(=O)O` [Example 101, 4-{6-[2-(4-Chloro-7-methoxy-2-methyl-benzo[b]thiophen-3-yl)-ethylamino]-pyrimidin-4-yl}-2-propoxy-benzoic acid], the IC50 was 85 nM. `CCCOc1cc(-c2cc(NCCc3c(C)sc4c(Cl)ccc(Cl)c34)ncn2)ccc1C(=O)O` [Example 102, 4-{6-[2-(4,7-Dichloro-2-methyl-benzo[b]thiophen-3-yl)-ethylamino]-pyrimidin-4-yl}-2-propoxy-benzoic acid] came in with a half-inhibitory concentration (IC50) of 54 nM. On to `CCOc1cc(-c2cc(NCCc3c(C)sc4c(C)ccc(F)c34)ncn2)cc(C)c1C(=O)O` [Example 103, 2-Ethoxy-4-{6-[2-(4-fluoro-2,7-dimethyl-benzo[b]thiophen-3-yl)-ethylamino]-pyrimidin-4-yl}-6-methyl-benzoic acid], for which the IC50 stood at 111 nM. The same measure for `CCOc1cc(-c2cc(NCCc3c(C#N)sc4c(C)cc(F)cc34)ncn2)ccc1CC(=O)O` [Example 104, (4-{6-[2-(2-Cyano-5-fluoro-7-methyl-benzo[b]thiophen-3-yl)-ethylamino]-pyrimidin-4-yl}-2-ethoxy-phenyl)-acetic acid]: 48 nM. Compound `CCOc1cc(-c2cc(NCCc3c(C)sc4c(OC)ccc(F)c34)ncn2)ccc1CC(=O)O` [Example 105, (2-Ethoxy-4-{6-[2-(4-fluoro-7-methoxy-2-methyl-benzo[b]thiophen-3-yl)-ethylamino]-pyrimidin-4-yl}-phenyl)-acetic acid] registered an IC50 of 157 nM. To `CCOc1cc(-c2cc(NCCc3c(C)sc4c(C)ccc(F)c34)ncn2)ccc1CC(=O)O` [Example 107, (2-Ethoxy-4-{6-[2-(4-fluoro-2,7-dimethyl-benzo[b]thiophen-3-yl)-ethylamino]-pyrimidin-4-yl}-phenyl)-acetic acid] belongs 249 nM; to `CCOc1cc(-c2cc(NCCc3c(C)sc4c(C)cccc34)ncn2)ccc1CC(=O)O` [Example 109, (4-{6-[2-(2,7-Dimethyl-benzo[b]thiophen-3-yl)-ethylamino]-pyrimidin-4-yl}-2-ethoxy-phenyl)-acetic acid], 95 nM. The same measure for `CCOc1cc(-c2cc(NCCc3c(C)sc4c(C)cc(F)cc34)ncn2)ccc1CC(=O)O` [Example 110, (2-Ethoxy-4-{6-[2-(5-fluoro-2,7-dimethyl-benzo[b]thiophen-3-yl)-ethylamino]-pyrimidin-4-yl}-phenyl)-acetic acid]: 160 nM; for `CCOc1cc(-c2cc(NCCc3c(C)sc4c(C)c(F)ccc34)ncn2)ccc1CC(=O)O` [Example 112, (2-Ethoxy-4-{6-[2-(6-fluoro-2,7-dimethyl-benzo[b]thiophen-3-yl)-ethylamino]-pyrimidin-4-yl}-phenyl)-acetic acid]: 188 nM.
